These compounds were tested against T1, mineralocorticoid receptor (MR) (Homo sapiens, UniProt P08235) (assay: Cell-based Gal4 response element-controlled luciferase reporter assay (MR antagonism)). Settings: Huh7 human liver cells transfected with Gal4 DBD-MR LBD fusion and luciferase reporter; block of agonist-induced activation; overnight incubation.
T1 construct: expressed in transfected cells; host or cells: Huh7 (human liver cells)
T1 sequence (P08235 726-964 limits assumed): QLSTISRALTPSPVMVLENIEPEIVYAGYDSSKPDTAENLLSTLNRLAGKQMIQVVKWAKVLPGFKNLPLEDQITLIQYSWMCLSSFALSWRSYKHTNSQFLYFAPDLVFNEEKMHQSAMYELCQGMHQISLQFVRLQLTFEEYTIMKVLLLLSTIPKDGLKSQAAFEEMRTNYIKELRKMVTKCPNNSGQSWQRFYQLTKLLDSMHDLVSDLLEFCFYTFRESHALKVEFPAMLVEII
Summary of the method: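 Transiently transfected Huh7 cells were treated with agonist at 70-80% of full activation plus compounds for 18-20 h in medium with charcoal/dextran-stripped serum. Luciferase read-out was normalized to β-galactosidase (ONPG, OD420); IC50 came from curve fitting.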

Row | IC50 [nM] | Compound
1 | 16 | N#Cc1ccc(N2N=C3c4ccc(C(=O)O)cc4CC[C@@H]3[C@@H]2c2ccco2)cc1Cl [Example 44, (3R,3aR)-2-(3-chloro-4-cyanophenyl)-3-(2-furyl)-3,3a,4,5-tetrahydro-2H-benzo[g]indazole-7-carboxylic acid]
2 | 2740 | Cc1cc(N2N=C3c4ccc(C(=O)O)cc4CC[C@H]3[C@H]2c2ccc(F)cc2)ccc1C#N [Example 8, (3S,3aS)-2-(4-cyano-3-methylphenyl)-3-(4-fluorophenyl)-3,3a,4,5-tetrahydro-2H-benzo[g]indazole-7-carboxylic acid]
3 | 1070 | CCOC(=O)c1ccc2c(c1)CCC1C2=NN(c2ccc(C#N)c(Cl)c2)C1c1ccc(F)cc1 (centres unmarked) [Example 1, ethyl 2-(3-chloro-4-cyanophenyl)-3-(4-fluorophenyl)-3,3a,4,5-tetrahydro-2H-benzo[g]indazole-7-carboxylate]
4 | 35 | Cc1cc(N2N=C3c4ccc(O)cc4CC[C@@H]3[C@@H]2c2ccc(F)cc2)ccc1C#N [Example 81, 4-((3R,3aR)-3-(4-fluorophenyl)-7-hydroxy-3,3a,4,5-tetrahydrobenzo[g]indazol-2-yl)-2-methylbenzonitrile]
5 | 553 | N#Cc1ccc(N2N=C3c4ccc(C(=O)O)cc4CCC3C2c2ccc(F)cc2)cc1 (racemic) [Example 10, 2-(4-cyanophenyl)-3-(4-fluorophenyl)-3,3a,4,5-tetrahydro-2H-benzo[g]indazole-7-carboxylic acid]
6 | 113 | N#Cc1ccc(N2N=C3c4ccc(O)cc4CC[C@@H]3[C@@H]2c2ccc(F)cc2)cc1C(F)(F)F [Example 84, 4-((3R,3aR)-3-(4-fluorophenyl)-7-hydroxy-3,3a,4,5-tetrahydrobenzo[g]indazol-2-yl)-2-(trifluoromethyl)benzonitrile]
7 | > 500 | Cc1cc(N2N=C3c4ccc(C(=O)O)cc4CC[C@H]3[C@H]2C2CCCC2)ccc1C#N (single isomer, unassigned) [Example 23]
8 | 3510 | N#Cc1ccc(N2N=C3c4ccc(C(=O)O)cc4OC[C@H]3[C@H]2c2ccc(F)cc2)cc1Cl [Example 57, (3S,3aS)-2-(3-chloro-4-cyanophenyl)-3-(4-fluorophenyl)-2,3,3a,4-tetrahydrochromeno[4,3-c]pyrazole-7-carboxylic acid]
9 | 3 | N#Cc1ccc(N2N=C3c4ccc(C(=O)NCCO)cc4CC[C@@H]3[C@@H]2C2CCCC2)cc1Cl [Example 115, (3S,3aR)-2-(3-chloro-4-cyanophenyl)-3-cyclopentyl-N-(2-hydroxyethyl)-3,3a,4,5-tetrahydro-2H-benzo[g]indazole-7-carboxamide]
10 | 141 | N#Cc1ccc(N2N=C3c4ccc(C(=O)NCCS(N)(=O)=O)cc4CC[C@@H]3[C@@H]2C2CCOCC2)cc1Cl (racemic) [Example 105, (±)-(3SR,3aRS)—N-[2-(aminosulfonyl)ethyl]-2-(3-chloro-4-cyanophenyl)-3-(tetrahydro-2H-pyran-4-yl)-3,3a,4,5-tetrahydro-2H-benzo[g]indazole-7-carboxamide]
11 | 21 | N#Cc1ccc(N2N=C3c4ccc(C(=O)O)cc4CCC3C2C2CCC2)cc1Cl (racemic) [Example 35, 2-(3-chloro-4-cyanophenyl)-3-cyclobutyl-3,3a,4,5-tetrahydro-2H-benzo[g] indazole-7-carboxylic acid]
12 | > 1000 | N#Cc1ccc(N2N=C3c4ccc(C(=O)O)cc4CC[C@H]3[C@H]2c2ccoc2)cc1Cl [Example 48, (3S,3aS)-2-(3-chloro-4-cyanophenyl)-3-(3-furyl)-3,3a,4,5-tetrahydro-2H-benzo[g]indazole-7-carboxylic acid]
13 | 26 | Cc1cc(N2N=C3c4ccc(C(=O)O)cc4OC[C@@H]3[C@@H]2C2CCCC2)ccc1C#N (single isomer, unassigned) [Example 62]
14 | 8100 | N#Cc1ccc(N2N=C3c4ccc(C(=O)O)cc4OC[C@H]3[C@H]2C2CCCC2)cc1 [Example 72, (3R,3aS)-2-(4-cyanophenyl)-3-cyclopentyl-2,3,3a,4-tetrahydrochromeno[4,3-c]pyrazole-7-carboxylic acid]
15 | 35 | N#Cc1ccc(N2N=C3c4ccc(C(=O)NCCC(N)=O)cc4CC[C@@H]3[C@@H]2c2ccc(F)cc2)cc1Cl (racemic) [Example 102, (±)-(3RS,3aRS)—N-(3-amino-3-oxopropyl)-2-(3-chloro-4-cyanophenyl)-3-(4-fluorophenyl)-3,3a,4,5-tetrahydro-2H-benzo[g]indazole-7-carboxamide]

Row | Compound | IC50 [nM]
16 | Cc1ccc([C@@H]2[C@@H]3CCc4cc(C(=O)O)ccc4C3=NN2c2ccc(C#N)c(Cl)c2)o1 [Example 41, (3S,3aS)-2-(3-chloro-4-cyanophenyl)-3-(5-methyl-2-furyl)-3,3a,4,5-tetrahydro-2H-benzo[g]indazole-7-carboxylic acid] | > 1000
17 | Cc1ccc(C2C3CCc4cc(C(=O)O)ccc4C3=NN2c2ccc(C#N)c(Cl)c2)o1 (racemic) [Example 39] | 22
